Measured values published in PubChem BioAssay AID1918931 (Molecular Pharmacology Branch, DTP, NCI, 2023).
pIC50: −log10 of the molar value.

System: 138582-337-R-J1-PDC complex spheroid viability
Experiment: Anticancer human tumor 138582-337-R-J1-PDC patient-derived Merkel cell tumor cell line growth inhibition
Conditions: for pIC50: curve of first compound; for viability, T/C: stronger effect = lower value
Procedure, shortened: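 Complex spheroids of tumor cells with HUVEC and human MSCs, exposed to iadademstat combined with other agents. Each agent tested in half-log steps from near clinical Cmax (else 10 microM top), DMSO ≤0.25%.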

[1] = second compound 0.1 µM, first compound 0.0316 µM
[2] = second compound 0.1 µM, first compound 0.1 µM
[3] = second compound 0.1 µM, first compound 0.316 µM
[4] = second compound 0.1 µM, first compound 1 µM
[5] = second compound 0.1 µM, first compound 3.16 µM
[6] = second compound 0.1 µM, first compound 10 µM
[7] = second compound 0.316 µM, first compound 0.0316 µM
[8] = second compound 0.316 µM, first compound 0.1 µM
[9] = second compound 0.316 µM, first compound 0.316 µM
[10] = second compound 0.316 µM, first compound 1 µM
[11] = second compound 0.316 µM, first compound 3.16 µM
[12] = second compound 0.316 µM, first compound 10 µM
[13] = second compound 1 µM, first compound 0.0316 µM
[14] = second compound 1 µM, first compound 0.1 µM
[15] = second compound 1 µM, first compound 0.316 µM
[16] = second compound 1 µM, first compound 1 µM
[17] = second compound 1 µM, first compound 3.16 µM
[18] = second compound 1 µM, first compound 10 µM
[19] = second compound 3.16 µM, first compound 0.0316 µM
[20] = second compound 3.16 µM, first compound 0.1 µM
[21] = second compound 3.16 µM, first compound 0.316 µM
[22] = second compound 3.16 µM, first compound 1 µM
[23] = second compound 3.16 µM, first compound 3.16 µM
[24] = second compound 3.16 µM, first compound 10 µM
[25] = second compound 10 µM, first compound 0.0316 µM
[26] = second compound 10 µM, first compound 0.1 µM
[27] = second compound 10 µM, first compound 0.316 µM
[28] = second compound 10 µM, first compound 1 µM
[29] = second compound 10 µM, first compound 3.16 µM
[30] = second compound 10 µM, first compound 10 µM
[31] = second compound 0.1 µM, first compound 0.00316 µM
[32] = second compound 0.1 µM, first compound 0.01 µM
[33] = second compound 0.316 µM, first compound 0.00316 µM
[34] = second compound 0.316 µM, first compound 0.01 µM
[35] = second compound 1 µM, first compound 0.00316 µM
[36] = second compound 1 µM, first compound 0.01 µM
[37] = second compound 3.16 µM, first compound 0.00316 µM
[38] = second compound 3.16 µM, first compound 0.01 µM
[39] = second compound 10 µM, first compound 0.00316 µM
[40] = second compound 10 µM, first compound 0.01 µM
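For viability, T/C in this document: 100% = DMSO vehicle control viability.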

In the case of `CC(C)c1c(-c2ccccc2)nc2c(C#N)c[nH]n2c1=O` + NC1CC1c1ccc(-c2cccc(O)c2)cc1, the pIC50 (second compound 0.1 µM) was 5.20, the pIC50 (second compound 0.316 µM) was 5.36 and the pIC50 (second compound 1 µM) was 5.31. The pIC50 (second compound 3.16 µM) was 5.60, the pIC50 (second compound 10 µM) was less than 5.00 and the viability, T/C [1] was 69.5%. It also gave a viability, T/C [2] of 76.3%, a viability, T/C [3] of 66.6% and a viability, T/C [4] of 62.1%. The viability, T/C [5] was 54.4%, the viability, T/C [6] was 46.9% and the viability, T/C [7] was 69.1%. For the same compound, the viability, T/C [8] was 73.5%, the viability, T/C [9] was 71.2% and the viability, T/C [10] was 67.6%. The viability, T/C [11] was 54.7%, the viability, T/C [12] was 38.5% and the viability, T/C [13] was 76.1%. For the same compound, the viability, T/C [14] was 68.8%, the viability, T/C [15] was 82% and the viability, T/C [16] was 70.2%. The viability, T/C [17] was 57.5%, the viability, T/C [18] was 38.2% and the viability, T/C [19] was 85.7%. The viability, T/C [20] was 78.6%, the viability, T/C [21] was 68.6% and the viability, T/C [22] was 55.9%. It also gave a viability, T/C [23] of 50.1%, a viability, T/C [24] of 38.5% and a viability, T/C [25] of 85.7%. It also gave a viability, T/C [26] of 90.9%, a viability, T/C [27] of 84.9% and a viability, T/C [28] of 73.9%. For the same compound, the viability, T/C [29] was 61.1% and the viability, T/C [30] was 51.6%.
`CC1COCCN1c1cc(-c2ccnn2C)c2ccnc(-c3ccn[nH]3)c2n1` (stereo not given) + NC1CC1c1ccc(-c2cccc(O)c2)cc1 showed a pIC50 (second compound 0.1 µM) of 7.46, a pIC50 (second compound 0.316 µM) of 7.59 and a pIC50 (second compound 1 µM) of 7.42. The pIC50 (second compound 3.16 µM) was 7.36, the pIC50 (second compound 10 µM) was 7.17 and the viability, T/C [31] was 62.1%. The viability, T/C [32] was 65%, the viability, T/C [1] was 50.3% and the viability, T/C [2] was 34.1%. It also gave a viability, T/C [3] of 26.3%, a viability, T/C [4] of 28% and a viability, T/C [33] of 68%. For the same compound, the viability, T/C [34] was 57.4%, the viability, T/C [7] was 48% and the viability, T/C [8] was 42.9%. It also gave a viability, T/C [9] of 27.1%, a viability, T/C [10] of 27.3% and a viability, T/C [35] of 77.1%. The viability, T/C [36] was 74.7%, the viability, T/C [13] was 54.4% and the viability, T/C [14] was 28.2%. The viability, T/C [15] was 30.1%, the viability, T/C [16] was 25.8% and the viability, T/C [37] was 80.4%. The viability, T/C [38] was 65.8%, the viability, T/C [19] was 59.7% and the viability, T/C [20] was 33.5%. It also gave a viability, T/C [21] of 27.6%, a viability, T/C [22] of 26.4% and a viability, T/C [39] of 75.6%. The viability, T/C [40] was 85%, the viability, T/C [25] was 57.6% and the viability, T/C [26] was 46.2%. The viability, T/C [27] was 30.5% and the viability, T/C [28] was 26.5%.
With `COc1ccc([C@@H](O)c2cc(-c3ncnc4cc(N5CCOCC5)ccc34)c(F)cc2Cl)nn1` + NC1CC1c1ccc(-c2cccc(O)c2)cc1 the pIC50 (second compound 0.1 µM) was 6.21, the pIC50 (second compound 0.316 µM) was 5.57 and the pIC50 (second compound 1 µM) was 5.70. For the same compound, the pIC50 (second compound 3.16 µM) was 5.66, the pIC50 (second compound 10 µM) was 5.60 and the viability, T/C [1] was 73.2%. The viability, T/C [2] was 60.4%, the viability, T/C [3] was 57% and the viability, T/C [4] was 45.5%. The viability, T/C [5] was 38.2%, the viability, T/C [6] was 24.6% and the viability, T/C [7] was 67%. For the same compound, the viability, T/C [8] was 72.2%, the viability, T/C [9] was 66.1% and the viability, T/C [10] was 58.3%. The viability, T/C [11] was 49.2%, the viability, T/C [12] was 28.5% and the viability, T/C [13] was 77.2%. It also gave a viability, T/C [14] of 73.5%, a viability, T/C [15] of 61% and a viability, T/C [16] of 61.6%. It also gave a viability, T/C [17] of 44.7%, a viability, T/C [18] of 25.1% and a viability, T/C [19] of 68.3%. The viability, T/C [20] was 79.5%, the viability, T/C [21] was 65.4% and the viability, T/C [22] was 58.8%. The viability, T/C [23] was 46.4%, the viability, T/C [24] was 26% and the viability, T/C [25] was 99.8%. It also gave a viability, T/C [26] of 90.6%, a viability, T/C [27] of 77% and a viability, T/C [28] of 63.9%. It also gave a viability, T/C [29] of 48.1% and a viability, T/C [30] of 25.3%.
`COc1cc(C2c3cc4c(cc3C(OC3OC5COC(C)OC5C(O)C3O)C3COC(=O)C23)OCO4)cc(OC)c1O` (stereo not given) + NC1CCC(NC2CC2c2ccccc2)CC1 gave a pIC50 (second compound 0.1 µM) of less than 5.52, a pIC50 (second compound 0.316 µM) of less than 5.52 and a pIC50 (second compound 1 µM) of less than 5.52. The pIC50 (second compound 3.16 µM) was less than 5.52, the pIC50 (second compound 10 µM) was less than 5.52 and the viability, T/C (second compound 0.1 µM, first compound 0.00949 µM) was 105%. It also gave a viability, T/C (second compound 0.1 µM, first compound 0.03 µM) of 89.8%, a viability, T/C (second compound 0.1 µM, first compound 0.0949 µM) of 67.3% and a viability, T/C (second compound 0.1 µM, first compound 0.3 µM) of 69.4%. For the same compound, the viability, T/C (second compound 0.1 µM, first compound 0.949 µM) was 70.3%, the viability, T/C (second compound 0.1 µM, first compound 3 µM) was 66.4% and the viability, T/C (second compound 0.316 µM, first compound 0.00949 µM) was 102%. For the same compound, the viability, T/C (second compound 0.316 µM, first compound 0.03 µM) was 76.3%, the viability, T/C (second compound 0.316 µM, first compound 0.0949 µM) was 85.4% and the viability, T/C (second compound 0.316 µM, first compound 0.3 µM) was 85.8%. The viability, T/C (second compound 0.316 µM, first compound 0.949 µM) was 74%, the viability, T/C (second compound 0.316 µM, first compound 3 µM) was 60.7% and the viability, T/C (second compound 1 µM, first compound 0.00949 µM) was 90.8%. The viability, T/C (second compound 1 µM, first compound 0.03 µM) was 95.3%, the viability, T/C (second compound 1 µM, first compound 0.0949 µM) was 76% and the viability, T/C (second compound 1 µM, first compound 0.3 µM) was 68.7%. The viability, T/C (second compound 1 µM, first compound 0.949 µM) was 94.1%, the viability, T/C (second compound 1 µM, first compound 3 µM) was 85.2% and the viability, T/C (second compound 3.16 µM, first compound 0.00949 µM) was 82.6%. For the same compound, the viability, T/C (second compound 3.16 µM, first compound 0.03 µM) was 87.3%, the viability, T/C (second compound 3.16 µM, first compound 0.0949 µM) was 85.1% and the viability, T/C (second compound 3.16 µM, first compound 0.3 µM) was 71.6%. It also gave a viability, T/C (second compound 3.16 µM, first compound 0.949 µM) of 69.1%, a viability, T/C (second compound 3.16 µM, first compound 3 µM) of 95.3% and a viability, T/C (second compound 10 µM, first compound 0.00949 µM) of 73.8%. For the same compound, the viability, T/C (second compound 10 µM, first compound 0.03 µM) was 81.6%, the viability, T/C (second compound 10 µM, first compound 0.0949 µM) was 75.3% and the viability, T/C (second compound 10 µM, first compound 0.3 µM) was 82%. It also gave a viability, T/C (second compound 10 µM, first compound 0.949 µM) of 65.5% and a viability, T/C (second compound 10 µM, first compound 3 µM) of 56.7%.
Compound `Nc1ncn(C2CC(O)C(CO)O2)c(=O)n1` (stereo not given) + NC1CCC(NC2CC2c2ccccc2)CC1 has a pIC50 (second compound 0.1 µM) of less than 6.00, a pIC50 (second compound 0.316 µM) of less than 6.00 and a pIC50 (second compound 1 µM) of less than 6.00. It also gave a pIC50 (second compound 3.16 µM) of less than 6.00, a pIC50 (second compound 10 µM) of less than 6.00 and a viability, T/C [31] of 98.7%. The viability, T/C [32] was 97.8%, the viability, T/C [1] was 103% and the viability, T/C [2] was 108%. It also gave a viability, T/C [3] of 95.4%, a viability, T/C [4] of 102% and a viability, T/C [33] of 82.7%. It also gave a viability, T/C [34] of 99.4%, a viability, T/C [7] of 96.6% and a viability, T/C [8] of 107%. It also gave a viability, T/C [9] of 89.7%, a viability, T/C [10] of 96.5% and a viability, T/C [35] of 96.9%. For the same compound, the viability, T/C [36] was 110%, the viability, T/C [13] was 97.5% and the viability, T/C [14] was 81.1%. For the same compound, the viability, T/C [15] was 83.2%, the viability, T/C [16] was 97.3% and the viability, T/C [37] was 100%. For the same compound, the viability, T/C [38] was 97.5%, the viability, T/C [19] was 93.1% and the viability, T/C [20] was 91.8%. For the same compound, the viability, T/C [21] was 103%, the viability, T/C [22] was 95.3% and the viability, T/C [39] was 87.2%. For the same compound, the viability, T/C [40] was 86%, the viability, T/C [25] was 91.8% and the viability, T/C [26] was 82.4%. For the same compound, the viability, T/C [27] was 84.7% and the viability, T/C [28] was 76.1%.
